From patent US20140011706A1, “SURFACE DISPLAY OF PO[…] METAL PORPHYRIN OR A FLAVIN” (Autodisplay Biotech GMBH, priority 2010, published 2014) come the findings set out here.

Series [1] has as its target T1, CYP106A2 (Priestia megaterium, UniProt Q06069).
Series [2] deals with T1, CYP106A2. Briefly: NADPH consumption of cells displaying CYP106A2 in the presence of imipramine (N-demethylation). The arrangement: expressed in transfected cells; host or cells: E. coli BL21(DE3) pET-CYP13, induced with 1 mM IPTG. Type of series: biochemical, E. coli BL21(DE3). The conditions noted are these: imipramine 2.5 μM, NADPH 200 μM, BL21(DE3) pETCYP13 cells OD578=2.5, Adx and AdR added. As for the experimental part:
The cells were prepared as described in Example 1. Redox equivalents are transferred from NADPH via the proteins AdR and Adx to the converting enzyme.
The reaction mixture contained in a total volume of 0.2 mL Hepes buffer (50 mM, 0.05% Tween20, pH 7.4), imipramine (2.5 μM), Adx ([…]), AdR (0.5 μM), NADPH (200 μM) and cells of E. coli BL21(DE3) or BL21(DE3) pETCYP13 corresponding to an OD578=2.5.
The by-product formalin (cf. FIG. 17) has been photometrically identified to be produced by the cells displaying CYP106A2, but not in the control cells (data not shown).

Setting [3] is: E. coli BL21(DE3) pETCYP13 whole cells, induced with 1 mM IPTG, Adx and AdR added.

Read-outs that look alike come from different tables or passages of the source.

As to `C[C@]12CC[C@H]3[C@@H](CCC4=CC(=O)CC[C@@]43C)[C@@H]1CC[C@@H]2C(=O)CO` [11-deoxycorticosterone], the “product formation from substrate (HPLC product peak)” value is given as “no product peak” at CYP106A2 [1] (BL21(DE3) pETCYP13 whole cells, 1 mM IPTG, without addition of Adx) and “resulted in a product peak” at CYP106A2 [1] (setting [3]). The “amount of product 15β-deoxycorticosterone (HPLC)” value at CYP106A2 [1] (TolC negative strain JW5503-1 (DE3) pETCYP13 compared with TolC positive BL21(DE3) pETCYP13, IPTG induced) is “decreased”. For `CC(C)C1=CC2=CC[C@@H]3[C@](C)(CCC[C@@]3(C)C(=O)O)[C@H]2CC1` [abietic acid], on CYP106A2 [1] (setting [3]), the “product formation from substrate (HPLC product peak)” value is recorded as “a product occurred at the expected retention time”.

On to `CN(C)CCCN1c2ccccc2CCc2ccccc21` [imipramine], for which the “conversion indicated by NADPH consumption difference versus control cells” value at CYP106A2 [2] is reported as “conversion of imipramine into desipramine”.
